Among the test systems are SNB-19 CNS; MALME-3M melanoma; U251 CNS; SR leukemia; SK-MEL-2 melanoma; UO-31 renal; KM12 colon; OVCAR-5 ovarian; NCI-H23 lung; SK-MEL-28 melanoma.
Holding throughout (experiment): NCI tumour cell line growth inhibition, 48 h

Each structure is given as a SMILES string.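 Compound exposure: 48 hours, 5 concentrations, 96-well plates. GI50 is the concentration that inhibits growth by half. Definition used: TGI = concentration required for complete inhibition of growth.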

As for `O=C1C(Cl)=C(Nc2ccccc2)C(=O)c2ccccc21`, the GI50 is 2.22 µM in the assay with SNB-19 CNS; 1.92 µM with MALME-3M melanoma; 1.8 µM in the assay on U251 CNS; 0.992 µM in the assay on SR leukemia; 1.87 µM in the assay on SK-MEL-2 melanoma; 1.41 µM in the assay with UO-31 renal. In addition, the GI50 was 6.23 µM in the assay on KM12 colon, 1.94 µM in the assay on OVCAR-5 ovarian, 1.92 µM in the assay with NCI-H23 lung and 1.97 µM with SK-MEL-28 melanoma. Also, the TGI with SNB-19 CNS was 5.07 µM; in the assay with MALME-3M melanoma it was 3.72 µM; with U251 CNS, 3.24 µM; with SR leukemia, more than 100 µM; with SK-MEL-2 melanoma it was 3.69 µM; in the assay with UO-31 renal it was 2.97 µM. Moreover, the TGI in the assay with KM12 colon was more than 100 µM; in the assay with OVCAR-5 ovarian, 3.65 µM; in the assay on NCI-H23 lung it was 4.25 µM; in the assay on SK-MEL-28 melanoma it was 3.53 µM.

`CC1(Cc2ccccc2)NC(=S)NC1=O` (centres undefined): the TGI with SNB-19 CNS, in the assay on MALME-3M melanoma, in the assay on U251 CNS, in the assay on SR leukemia, in the assay on SK-MEL-2 melanoma and in the assay on UO-31 renal was more than 100 µM throughout. Moreover, the TGI with KM12 colon, in the assay on OVCAR-5 ovarian, in the assay with NCI-H23 lung and in the assay on SK-MEL-28 melanoma was more than 100 µM in each case.

Regarding `Cc1ccc2c(c1)Sc1ccc(N=NN(C)C)cc1N2C`, the TGI in the assay with SNB-19 CNS, in the assay with MALME-3M melanoma, in the assay with U251 CNS, in the assay with SR leukemia, in the assay on SK-MEL-2 melanoma and in the assay with UO-31 renal was more than 100 µM each time. Moreover, the TGI in the assay on KM12 colon, in the assay with OVCAR-5 ovarian, in the assay on NCI-H23 lung and with SK-MEL-28 melanoma was more than 100 µM each time.

For `O=S(=O)(CCOCc1ccc(-c2ccc3ncnc(Nc4ccc(OCc5cccc(F)c5)c(Cl)c4)c3c2)o1)c1ccccc1`, the GI50 is more than 25 µM with SNB-19 CNS; more than 25 µM in the assay with MALME-3M melanoma; more than 25 µM in the assay with U251 CNS; more than 25 µM in the assay on SR leukemia; more than 25 µM in the assay with SK-MEL-2 melanoma; more than 7.54 µM in the assay on UO-31 renal. For the same molecule, the GI50 in the assay with KM12 colon, with OVCAR-5 ovarian, with NCI-H23 lung and with SK-MEL-28 melanoma was more than 25 µM in each case. In addition, the TGI with SNB-19 CNS, in the assay with MALME-3M melanoma, with U251 CNS, in the assay on SR leukemia, in the assay on SK-MEL-2 melanoma and in the assay on UO-31 renal was more than 25 µM throughout. Further, the TGI in the assay with KM12 colon, in the assay with OVCAR-5 ovarian, with NCI-H23 lung and in the assay with SK-MEL-28 melanoma was more than 25 µM throughout.

As to `O=S1(=O)NCCCN1CCNc1nccc(-c2c(-c3cccc(O)c3)nc3sccn23)n1`, the GI50 in the assay with SNB-19 CNS is more than 92.5 µM; with MALME-3M melanoma it was 0.108 µM; in the assay on U251 CNS, 21.6 µM; in the assay with SR leukemia it was 5.55 µM; in the assay with SK-MEL-2 melanoma, 2.57 µM; with UO-31 renal, 37 µM. In addition, the GI50 is 33.3 µM in the assay with KM12 colon, 49.8 µM with OVCAR-5 ovarian, 29 µM in the assay with NCI-H23 lung and 0.245 µM in the assay with SK-MEL-28 melanoma. The TGI is more than 100 µM in the assay on SNB-19 CNS; 3.26 µM in the assay on MALME-3M melanoma; more than 100 µM in the assay with U251 CNS; 59.3 µM in the assay with SR leukemia; 9.66 µM in the assay on SK-MEL-2 melanoma; more than 96.6 µM with UO-31 renal. Besides, the TGI was more than 90.4 µM with KM12 colon, more than 100 µM with OVCAR-5 ovarian, more than 100 µM with NCI-H23 lung and more than 100 µM with SK-MEL-28 melanoma.

Regarding `Cc1ccccc1Nc1nc2c(s1)C(=O)c1ccccc1C2=O`, the TGI in the assay on SNB-19 CNS came to 13.2 µM; in the assay on MALME-3M melanoma, 28.2 µM; in the assay on U251 CNS, 8.83 µM; with SR leukemia, 11.4 µM; in the assay on SK-MEL-2 melanoma, 31.5 µM; in the assay with UO-31 renal it was 14.4 µM. Moreover, the TGI in the assay on KM12 colon was found to be 23.4 µM; in the assay with OVCAR-5 ovarian, 38 µM; in the assay on NCI-H23 lung, 14.1 µM; in the assay on SK-MEL-28 melanoma, 27.7 µM.

For the molecule `CCCCCCCCCCCC[n+]1ccccc1` (tested in a mixture with another compound), the GI50 is 1.29 µM in the assay with SNB-19 CNS; 0.633 µM with MALME-3M melanoma; 0.443 µM in the assay on U251 CNS; 0.156 µM with SR leukemia; 1.76 µM in the assay with SK-MEL-2 melanoma; 2.24 µM with UO-31 renal. For the same molecule, the GI50 in the assay on KM12 colon was 0.38 µM; in the assay on OVCAR-5 ovarian, 1.03 µM; with NCI-H23 lung, 0.655 µM; in the assay with SK-MEL-28 melanoma, 1.35 µM. In addition, the TGI amounted to 3.48 µM in the assay with SNB-19 CNS; 2.77 µM in the assay with MALME-3M melanoma; 2.2 µM in the assay on U251 CNS; 3.11 µM with SR leukemia; 5.52 µM in the assay with SK-MEL-2 melanoma; 14.8 µM with UO-31 renal. The TGI in the assay on KM12 colon amounted to 1.59 µM; in the assay with OVCAR-5 ovarian, 5.85 µM; in the assay with NCI-H23 lung, 5.48 µM; in the assay on SK-MEL-28 melanoma it was 3.53 µM.

Turning to `NC(=O)C1(N2CCCCC2)CCN(CCCC(=O)c2ccc(F)cc2)CC1`, the GI50 in the assay with SNB-19 CNS is 2.86 µM; with MALME-3M melanoma, 0.264 µM; in the assay with U251 CNS, 0.263 µM; with SR leukemia, 0.0761 µM; with SK-MEL-2 melanoma it was 0.0925 µM; in the assay with UO-31 renal, 17.2 µM. Further, the GI50 in the assay on KM12 colon is 1.39 µM; in the assay on OVCAR-5 ovarian it was 6.96 µM; in the assay with NCI-H23 lung, 1.08 µM; in the assay on SK-MEL-28 melanoma it was 1.08 µM. Moreover, the TGI in the assay on SNB-19 CNS is more than 100 µM; with MALME-3M melanoma, more than 100 µM; in the assay on U251 CNS it was more than 100 µM; with SK-MEL-2 melanoma it was more than 100 µM; in the assay with UO-31 renal, more than 100 µM; with KM12 colon it was 67.6 µM. The TGI with OVCAR-5 ovarian was more than 100 µM; in the assay on NCI-H23 lung it was more than 20.1 µM; in the assay with SK-MEL-28 melanoma it was more than 100 µM.

With `CNC(=O)c1cc2c(Oc3ccc(NC(=O)C4(C(=O)Nc5ccc(F)cc5)CC4)cc3)ccnc2cc1OC`, the GI50 in the assay with SNB-19 CNS is 8.02 µM; with MALME-3M melanoma it was 1.66 µM; in the assay with U251 CNS, 3.51 µM; with SR leukemia it was 2.05 µM; with SK-MEL-2 melanoma it was 2.02 µM; in the assay on UO-31 renal it was 1.78 µM. The GI50 is 0.196 µM with KM12 colon, 3.17 µM with OVCAR-5 ovarian, 2.17 µM with NCI-H23 lung and 3.68 µM with SK-MEL-28 melanoma. The TGI in the assay on SNB-19 CNS was more than 100 µM; in the assay with MALME-3M melanoma, 9.45 µM; with U251 CNS it was more than 100 µM; in the assay on SR leukemia it was 5.99 µM; with SK-MEL-2 melanoma, 5.92 µM; with UO-31 renal it was 6.25 µM. In addition, the TGI with KM12 colon, with OVCAR-5 ovarian, in the assay with NCI-H23 lung and in the assay on SK-MEL-28 melanoma was more than 100 µM throughout.

The record behind these values is PubChem BioAssay (NCI).
